Holding throughout (type): cell-based
In experiment [1] the test system is Escherichia coli CCUG^T. The experiment is described as follows: microbe, parasite or virus in culture. The note with it: for Potentiation fold: ratio MICcompound/MICcompound+polymyxin E; for MIC in presence of colistin: with 0.25xMIC polymyxin E1 (0.12 mg/L); for MIC: Escherichia coli. The protocol: (§1) Growth inhibition or killing of bacteria was investigated using conventional methods widely described in the scientific literature. Parameters such as the Minimum Inhibitory Concentration (MIC) were determined as described in Clinical Laboratory Standard Institute (CLSI) document M07 “Methods for Dilution Antimicrobial Susceptibility Tests for Bacteria That Grow Aerobically, 11th Edition” (2018). Synergistic activity of the compounds described in the present specification were determined by measuring the variation of the MIC's compound in the absence and presence of a sub-inhibitory concentration of a suitable antibacterial agent, such as polymyxin E1. Furthermore, the Fractional Inhibitory Concentrations (FICs) were measured using a chequerboard analysis to determine the average FIC index (FICI), whose value is known to characterize the interaction between two compounds and/or drugs (≤0.5, synergistic interaction; >0.5 and <2, no interaction, additive effect; ≥2, antagonistic interaction). Furthermore, the selectivity of the compounds was investigated by measuring their cytotoxic effect on mammalian cell lines (e.g. HeLa cells).
(§2) Several methods were used to investigate the synergistic activity of the compounds, including (a) the determination of the MIC in the presence of a sub-inhibitory concentration of a suitable antibacterial agent, (b) the determination of the average FICI using a chequerboard analysis and (c) the time-kill curve analysis of a suitable agent (at a sub-inhibitory concentration) in the absence and presence of the pyrazolo[4,3-b]pyridin-6-carboxamide compound at a fixed concentration of 2 or 8 mg/L.
(§3) The MIC of the compound was determined alone and in the presence of a fixed and sub-inhibitory concentration of a suitable antibacterial agent of the polymyxin class, such as polymyxin E1 (colistin). The potentiation fold was computed as the ratio MICcompound/MICcompound+polymyxin E. Tested organisms included Escherichia coli CCUG^TKlebsiella pneumoniae ATCC 13833 and Acinetobacter baumannii ATCC 17978, which show a colistin MIC of 0.5, 0.5 and 1 mg/L, respectively.

The subject of experiment [2] is Klebsiella pneumoniae ATCC 13833. Put plainly: microbe, parasite or virus in culture. The note with it: for Potentiation fold: ratio MICcompound/MICcompound+polymyxin E; for MIC in presence of colistin: with 0.25xMIC polymyxin E1 (0.12 mg/L); for MIC: Klebsiella pneumoniae, ATCC13833. How it is done:
as §1, §2, §3

Experiment [3] deals with Acinetobacter baumannii ATCC 17978. Put plainly: microbe, parasite or virus in culture. As to conditions: for Potentiation fold: ratio MICcompound/MICcompound+polymyxin E; for MIC in presence of colistin: with 0.25xMIC polymyxin E1 (0.25 mg/L); for MIC: Acinetobacter baumannii, ATCC17978. How it is done: as §1, §2, §3
Experiment [4] concerns Staphylococcus aureus ATCC 25923. The experiment is described as follows: MIC, broth microdilution (direct antibacterial activity). The note with it: ATCC25923, S. aureus ATCC 25923, compound alone, 18-24 h, read-out: MIC. The protocol: as §1
(§4) The MIC values were determined using the broth microdilution method as described in document M07 using Mueller-Hinton broth as culture medium and an initial bacterial inoculum size of 5×10^5 CFU/mL, with a final volume of 100 μL per well in a 96-well microplate. Bacterial strains were Bacillus subtilis ATCC 6633, Enterococcus faecalis ATCC 29212, Streptococcus pyogenes ATCC 12344 and Staphylococcus aureus ATCC 25923. The tested compound concentration ranged from 512 to 0.25 mg/L. Plates were incubated for 18-24 hours at 35±2° C. prior to results analysis.

Experiment [5] has as its system Enterococcus faecalis ATCC 29212. The experiment is described as above. The note with it: ATCC29212, E. faecalis ATCC 29212, compound alone, 18-24 h, read-out: MIC. The protocol:
as §1, §4

The test system of experiment [6] is Bacillus subtilis ATCC 6633. The experiment is described as above. As to conditions: ATCC6633, B. subtilis ATCC 6633, compound alone, 18-24 h, read-out: MIC. The protocol:
as §1, §4

In experiment [7] the test system is Streptococcus pyogenes ATCC 12344. The description is as above. The note with it: ATCC12344, S. pyogenes ATCC 12344, compound alone, 18-24 h, read-out: MIC. How it is done:
as §1, §4

The mark [8] stands for this setting: E. coli CCUG^T, compound alone, read-out: MIC.
Setting [9] is: K. pneumoniae ATCC 13833, compound alone, read-out: MIC.
Setting [10] is: A. baumannii ATCC 17978, compound alone, read-out: MIC.

SMILES strings stand for the structures. Like-named read-outs stand apart in the source and are kept apart here. Some results are limits rather than exact numbers.

For the compound `CCCCn1c(=O)c(C(=O)NC23CC4CC(CC(O)(C4)C2)C3)c(O)c2nn(C)cc21` [Ia, 4-(1-Butyl)-4,5-dihydro-7-hydroxy-N-(1-hydroxyadamantan-3-yl)-2-methyl-5-oxo-2H-pyrazolo[4,3-b]pyridin-6-carboxamide], the Potentiation fold is at least 16 in experiment [1] (E. coli CCUG^T), at least 8 in experiment [2] (K. pneumoniae ATCC 13833) and at least 16 in experiment [3] (A. baumannii ATCC 17978). Further, the “MIC in presence of colistin” value in experiment [1] (E. coli CCUG^T) turned out to be 32 µg/mL; in experiment [2] (K. pneumoniae ATCC 13833) it was 64 µg/mL; in experiment [3] (A. baumannii ATCC 17978) it was 32 µg/mL. For the same compound, the MIC in experiment [1], in experiment [2] and in experiment [3] was over 512 µg/mL each time.
For `CC(C)n1c(=O)c(C(=O)NC2CCCc3ccccc32)c(O)c2nn(C)cc21` (centres unmarked) [Iaa, 4,5-Dihydro-7-hydroxy-2-methyl-5-oxo-4-(2-propyl)-N-(1,2,3,4-tetrahydro-1-naphthyl)-2H-pyrazolo[4,3-b]pyridin-6-carboxamide], the Potentiation fold in experiment [1] (E. coli CCUG^T) was at least 32; in experiment [2] (K. pneumoniae ATCC 13833) it was at least 16; in experiment [3] (A. baumannii ATCC 17978), at least 32. In addition, the “MIC in presence of colistin” value in experiment [1] (E. coli CCUG^T) came to 16 µg/mL; in experiment [2] (K. pneumoniae ATCC 13833), 32 µg/mL; in experiment [3] (A. baumannii ATCC 17978) it was 16 µg/mL. The MIC was over 512 µg/mL in experiment [1] (setting [8]); over 512 µg/mL in experiment [2] (setting [9]); over 512 µg/mL in experiment [3] (setting [10]); 64 µg/mL in experiment [4]; 64 µg/mL in experiment [5]; 16 µg/mL in experiment [6]. For the same compound, the MIC in experiment [7] is 32 µg/mL.
As to `CC(C)n1c(=O)c(C(=O)NC(c2ccccc2)c2ccccc2)c(O)c2nn(C)cc21` [Iab, 4,5-Dihydro-N-(diphenylmethyl)-7-hydroxy-2-methyl-5-oxo-4-(2-propyl)-2H-pyrazolo[4,3-b]pyridin-6-carboxamide], the Potentiation fold in experiment [1] (E. coli CCUG^T), in experiment [2] (K. pneumoniae ATCC 13833) and in experiment [3] (A. baumannii ATCC 17978) was at least 32 in each case. The “MIC in presence of colistin” value in experiment [1] (E. coli CCUG^T), in experiment [2] (K. pneumoniae ATCC 13833) and in experiment [3] (A. baumannii ATCC 17978) was 16 µg/mL each time. Moreover, the MIC is over 512 µg/mL in experiment [1] (setting [8]); over 512 µg/mL in experiment [2] (setting [9]); over 512 µg/mL in experiment [3] (setting [10]); 32 µg/mL in experiment [4]; 32 µg/mL in experiment [5]; 16 µg/mL in experiment [6]. In addition, the MIC in experiment [7] turned out to be 32 µg/mL.
Regarding `CCCCn1c(=O)c(C(=O)NCc2ccc(F)cc2)c(O)c2nn(C)cc21` [Iac, 4-(1-Butyl)-4,5-dihydro-N-[(4-fluorophenyl)methyl]-7-hydroxy-2-methyl-5-oxo-2H-pyrazolo[4,3-b]pyridin-6-carboxamide], the MIC in experiment [4] worked out at 128 µg/mL; in experiment [5] it was 64 µg/mL; in experiment [6], 64 µg/mL; in experiment [7] it was 32 µg/mL.
In the case of `CCCCn1c(=O)c(C(=O)N[C@@H](Cc2ccccc2)C(=O)OC(C)(C)C)c(O)c2nn(C)cc21` [Iad, 1,1-Dimethylethyl (S)-2-[4-(1-butyl)-4,5-dihydro-7-hydroxy-2-methyl-5-oxo-2H-pyrazolo[4,3-b]pyridin-6-carboxamido]-3-phenylpropanoate], the Potentiation fold in experiment [1] (E. coli CCUG^T) is on record as at least 16; in experiment [2] (K. pneumoniae ATCC 13833) it was at least 16; in experiment [3] (A. baumannii ATCC 17978) it was at least 4. Moreover, the “MIC in presence of colistin” value in experiment [1] (E. coli CCUG^T) stood at 32 µg/mL; in experiment [2] (K. pneumoniae ATCC 13833) it was 32 µg/mL; in experiment [3] (A. baumannii ATCC 17978), 128 µg/mL. Besides, the MIC in experiment [1] (setting [8]) was over 512 µg/mL; in experiment [2] (setting [9]), over 512 µg/mL; in experiment [3] (setting [10]), over 512 µg/mL; in experiment [4], 256 µg/mL; in experiment [5], 128 µg/mL; in experiment [6], 32 µg/mL. In addition, the MIC in experiment [7] was 64 µg/mL.
Turning to `CCCCn1c(=O)c(C(=O)NC2CCCC2)c(O)c2nn(C)cc21` [Iag, 4-(1-Butyl)-N-cyclopentyl-4,5-dihydro-7-hydroxy-2-methyl-5-oxo-2H-pyrazolo-[4,3-b]pyridin-6-carboxamide], the Potentiation fold in experiment [1] (E. coli CCUG^T) was at least 16; in experiment [2] (K. pneumoniae ATCC 13833), at least 8; in experiment [3] (A. baumannii ATCC 17978), at least 4. The “MIC in presence of colistin” value turned out to be 32 µg/mL in experiment [1] (E. coli CCUG^T), 64 µg/mL in experiment [2] (K. pneumoniae ATCC 13833) and 128 µg/mL in experiment [3] (A. baumannii ATCC 17978). Further, the MIC in experiment [1] (setting [8]), in experiment [2] (setting [9]) and in experiment [3] (setting [10]) was over 512 µg/mL in each case.
As to `CCCCCn1c(=O)c(C(=O)NC23CC4CC(CC(O)(C4)C2)C3)c(O)c2nn(CCO)cc21` [Io, 4,5-Dihydro-7-hydroxy-N-(1-hydroxyadamantan-3-yl)-2-(2-hydroxyethyl)-5-oxo-4-(1-pentyl)-2H-pyrazolo[4,3-b]pyridin-6-carboxamide], the MIC in experiment [1], in experiment [2] and in experiment [3] was over 512 µg/mL throughout. In addition, the figures for the Potentiation fold in experiment [2] (K. pneumoniae ATCC 13833) and in experiment [3] (A. baumannii ATCC 17978) were at least 64 and at least 128, respectively. The “MIC in presence of colistin” value in experiment [2] (K. pneumoniae ATCC 13833) is 8 µg/mL; in experiment [3] (A. baumannii ATCC 17978) it was 4 µg/mL.
`CCCn1c(=O)c(C(=O)NC23CC4CC(CC(C4)C2)C3)c(O)c2nn(CCOC(C)=O)cc21` [Ir, 2-(2-Acetoxyethyl)-N-(adamantan-1-yl)-4,5-dihydro-7-hydroxy-5-oxo-4-(1-propyl)-2H-pyrazolo[4,3-b]pyridin-6-carboxamide]: the Potentiation fold is at least 8 in experiment [1] (E. coli CCUG^T), at least 8 in experiment [2] (K. pneumoniae ATCC 13833) and at least 16 in experiment [3] (A. baumannii ATCC 17978). In addition, the “MIC in presence of colistin” value in experiment [1] (E. coli CCUG^T) was 64 µg/mL; in experiment [2] (K. pneumoniae ATCC 13833) it was 64 µg/mL; in experiment [3] (A. baumannii ATCC 17978), 32 µg/mL. Further, the MIC in experiment [1], in experiment [2] and in experiment [3] was over 512 µg/mL throughout.
Turning to `CCCCn1c(=O)c(C(=O)NC(c2ccccc2)c2ccccc2)c(O)c2nn(C)cc21` [Iu, 4-(1-Butyl)-4,5-dihydro-N-(diphenylmethyl)-7-hydroxy-2-methyl-5-oxo-2H-pyrazolo[4,3-b]pyridin-6-carboxamide], the Potentiation fold is given as at least 8 in experiment [1] (E. coli CCUG^T), at least 8 in experiment [2] (K. pneumoniae ATCC 13833) and at least 16 in experiment [3] (A. baumannii ATCC 17978). In addition, the “MIC in presence of colistin” value in experiment [1] (E. coli CCUG^T) is 64 µg/mL; in experiment [2] (K. pneumoniae ATCC 13833), 64 µg/mL; in experiment [3] (A. baumannii ATCC 17978), 32 µg/mL. In addition, the MIC in experiment [1] (setting [8]), in experiment [2] (setting [9]) and in experiment [3] (setting [10]) was over 512 µg/mL in each case.
As to `CCCCn1c(=O)c(C(=O)NC(C)(C)C)c(O)c2nn(CC)cc21` [Iw, 4-(1-Butyl)-4,5-dihydro-N-(1,1-dimethylethyl)-2-ethyl-7-hydroxy-5-oxo-2H-pyrazolo[4,3-b]pyridin-6-carboxamide], the Potentiation fold in experiment [1] (E. coli CCUG^T) is listed as at least 32; in experiment [2] (K. pneumoniae ATCC 13833), at least 16; in experiment [3] (A. baumannii ATCC 17978), at least 8. In addition, the “MIC in presence of colistin” value in experiment [1] (E. coli CCUG^T) came out at 16 µg/mL; in experiment [2] (K. pneumoniae ATCC 13833), 32 µg/mL; in experiment [3] (A. baumannii ATCC 17978) it was 64 µg/mL. Moreover, the MIC in experiment [1] (setting [8]), in experiment [2] (setting [9]) and in experiment [3] (setting [10]) was over 512 µg/mL throughout.

For the origin of these results see US12358919B2, “Antibacterial compounds” (Universita' degli Studi di Siena, priority 2019, dated 2025).
